Assays:
Assay in all cases: Field trial, weed control burn down symptoms at 5 DAT
Details in all cases: field trial India, glufosinate ammonium 400, carfentrazone 10, imazethapyr 100 gm/ha
Trianthema monogyna = tested on: Trianthema monogyna
Parthenium hysterophorus = tested on: Parthenium hysterophorus
Dinebra retroflexa = tested on: Dinebra retroflexa
Cyprus spp = tested on: Cyprus spp

Row | SMILES | % Weed control Burn Down Symptoms Generation, Trianthema monogyna, Actual (Trianthema monogyna) | % Weed control Burn Down Symptoms Generation, Parthenium hysterophorus, Actual (Parthenium hysterophorus) | % Weed control Burn Down Symptoms Generation, Dinebra retroflexa, Actual (Dinebra retroflexa) | % Weed control Burn Down Symptoms Generation, Cyprus spp, Actual (Cyprus spp)
1 | CCOC(=O)C(Cl)Cc1cc(-n2nc(C)n(C(F)F)c2=O)c(F)cc1Cl (racemic) [Carfentrazone, ethyl (RS)-2-chloro-3-{2-chloro-5-[4-(difluoromethyl)-4,5-dihydro-3-methyl-5-oxo-1H-1,2,4-triazol-1-yl]-4-fluorophenyl}propionate] | 70% | 5% | 0% | 60%
2 | CCc1cnc(C2=NC(C)(C(C)C)C(=O)N2)c(C(=O)O)c1 (racemic) [Imazethapyr, 5-ethyl-2-[(RS)-4-isopropyl-4-methyl-5-oxo-2-imidazolin-2-yl]nicotinic acid] | 10% | 5% | 0% | 00%
3 | CP(=O)(O)CCC(N)C(=O)O (racemic) [Glufosinate ammonium, (2RS)-2-amino-4-[hydroxy(methyl)phosphinoyl]butyric acid] | 25% | 30% | 15% | 5%

Reference: patent US20200337310A1, “Herbicidal Combinations” (UPL LTD, priority 2018, published 2020)
